Experimental data: patent publication US20090142347A1, “Tissue-Nonspecific Alkaline Phosphatase (TNAP): a Therapeutic Target for Arterial Calcification” (THE BURNHAM INSTITUTE FOR MEDICAL RESEARCH, priority 2004, published 2009)
Where two headings read alike, the source gives them in different places.

Experiments:
[1] = system: bovine VSMC calcification; settings: Shioi et al., 1995; cited from earlier work
[2] = target: T1, hPLALP H429 (Homo sapiens, UniProt P05187, E451H); assay: Ki of uncompetitive inhibitors (pNPP substrate); type: biochemical; settings: hPLALP mutant H429; read-out: Ki for various inhibitors
T1 construct: made in house; host or cells: COS-7 (given only for the TNAP-Flag constructs)
Protocol: (§1) In brief, samples of the enzymes were added to microtiter plates coated with M2 anti-FLAG antibody, and saturating activities with the substrate pNPP were measured in 1 M DEA/HCl buffer, pH 9.8, containing 1 mM MgCl2 and 20 .micro.M ZnCl2.

[3] = target: T2, hPLALP (Homo sapiens, UniProt P05187); assay: Ki of uncompetitive inhibitors (pNPP substrate); type: biochemical; settings: read-out: Ki for various inhibitors
T2 construct: made in house
Protocol: as §1

[4] = target: T3, hPLALP D165 (Homo sapiens, UniProt P05187, N187D); assay: Ki of uncompetitive inhibitors (pNPP substrate); type: biochemical; settings: hPLALP mutant D165; read-out: Ki for various inhibitors
T3 construct: made in house; host or cells: COS-7 (given only for the TNAP-Flag constructs)
Protocol: as §1

[5] = target: T4, hPLALP E107 (Homo sapiens, UniProt P05187, F129E); assay: Ki of uncompetitive inhibitors (pNPP substrate); type: biochemical; settings: hPLALP mutant E107; read-out: Ki for various inhibitors
T4 construct: made in house
Protocol: as §1

[6] = target: T5, hPLALP G108 (Homo sapiens, UniProt P05187, Q130G); assay: Ki of uncompetitive inhibitors (pNPP substrate); type: biochemical; settings: hPLALP mutant G108; read-out: Ki for various inhibitors
T5 construct: made in house; host or cells: COS-7 (given only for the TNAP-Flag constructs)
Protocol: as §1

[7] = target: T6, hPLALP (G108, G429) (Homo sapiens, UniProt P05187, E451G/Q130G); assay: Ki of uncompetitive inhibitors (pNPP substrate); type: biochemical; settings: hPLALP mutant (G108, G429); read-out: Ki for various inhibitors
T6 construct: made in house; host or cells: COS-7 (given only for the TNAP-Flag constructs)
Protocol: as §1

[8] = target: T7, hPLALP (E107, G108) (Homo sapiens, UniProt P05187, F129E/Q130G); assay: Ki of uncompetitive inhibitors (pNPP substrate); type: biochemical; settings: hPLALP mutant (E107, G108); read-out: Ki for various inhibitors
T7 construct: made in house; host or cells: COS-7 (given only for the TNAP-Flag constructs)
Protocol: as §1

[9] = target: T8, hPLALP (R428, H429) (Homo sapiens, UniProt P05187, D450R/E451H); assay: Ki of uncompetitive inhibitors (pNPP substrate); type: biochemical; settings: hPLALP mutant (R428, H429); read-out: Ki for various inhibitors
T8 construct: made in house; host or cells: COS-7 (given only for the TNAP-Flag constructs)
Protocol: as §1

[10] = target: T9, hPLALP (E107, G429) (Homo sapiens, UniProt P05187, E451G/F129E); assay: Ki of uncompetitive inhibitors (pNPP substrate); type: biochemical; settings: hPLALP mutant (E107, G429); read-out: Ki for various inhibitors
T9 construct: made in house; host or cells: COS-7 (given only for the TNAP-Flag constructs)
Protocol: as §1

[11] = target: T10, hPLALP S119 (Homo sapiens, UniProt P05187, N141S); assay: Ki of uncompetitive inhibitors (pNPP substrate); type: biochemical; settings: hPLALP mutant S119; read-out: Ki for various inhibitors
T10 construct: made in house; host or cells: COS-7 (given only for the TNAP-Flag constructs)
Protocol: as §1

[12] = target: T11, hPLALP R428 (Homo sapiens, UniProt P05187, D450R); assay: Ki of uncompetitive inhibitors (pNPP substrate); type: biochemical; settings: hPLALP mutant R428; read-out: Ki for various inhibitors
T11 construct: made in house; host or cells: COS-7 (given only for the TNAP-Flag constructs)
Protocol: as §1

[13] = target: T12, chTNALP (Gallus gallus, UniProt Q92058); assay: Ki of uncompetitive inhibitors (pNPP substrate); type: biochemical, chicken
T12 sequence (Q92058 17-498): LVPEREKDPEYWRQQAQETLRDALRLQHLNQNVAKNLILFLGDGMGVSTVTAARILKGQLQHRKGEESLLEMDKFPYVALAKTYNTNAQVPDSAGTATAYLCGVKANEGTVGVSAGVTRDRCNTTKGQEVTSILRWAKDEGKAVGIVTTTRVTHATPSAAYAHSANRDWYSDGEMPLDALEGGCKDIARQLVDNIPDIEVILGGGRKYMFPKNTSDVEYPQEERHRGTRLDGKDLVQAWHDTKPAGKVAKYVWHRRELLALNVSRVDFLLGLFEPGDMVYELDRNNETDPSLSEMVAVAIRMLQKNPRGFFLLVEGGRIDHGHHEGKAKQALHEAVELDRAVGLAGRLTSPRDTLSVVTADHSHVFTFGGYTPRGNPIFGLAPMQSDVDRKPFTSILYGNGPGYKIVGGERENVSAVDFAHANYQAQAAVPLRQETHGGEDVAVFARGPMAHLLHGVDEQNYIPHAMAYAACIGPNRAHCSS
Source text: (See Kozlenkov A, et al., 2002). […] TNAP and PLAP structures were superimposed and the amino acid differences within a 12 Å radius around the catalytic Zn1 ion were pinpointed. The difference between human TNAP and chicken TNAP were also mapped because it is reported that chicken TNAP is much less susceptible to levamisol than is human TNAP. In total, six positions with amino acid differences were found, which could be clustered into two groups. […] In addition, […] and […] were also investigated.

[14] = target: Recombinant human FLAG-TNAP (Homo sapiens, UniProt P05186); assay: Chemical library screening, TNAP pNPP microtiter plate assay; settings: for inhibition response: positive controls, 0.5 mM pNPP, pH 9.8, concentration not given
[15] = system: wild-type osteoblasts; settings: wild-type osteoblasts treated with exogenous PPi; RT-PCR
Source text: To determine whether affecting the function of either NPP1 or ANK would have beneficial consequences on hypophosphatasia by reducing the amounts of extracellular PPi in the Akp2−/− mice, we bred either Enpp1−/− or ank/ank mice to the Akp2−/− mice. […] Hypophosphatasia arises from deficits in TNAP activity, resulting in an increase in PPi levels and concomitant increase in OPN levels.

[16] = system: Akp2−/− mice; settings: Narisawa et al., 2001; cited from earlier work
[17] = system: TNAP activity in Enpp1−/− and ank/ank derived VSMC; settings: Enpp1−/− and ank/ank derived VSMC in vitro, tetramisole 0.125 mM, 3 weeks (FIG. 5)
Source text: Left panel: A) immunofluorscent detection of smooth muscle alpha-actin. VSMCs were isolated from WT aorta by collagenase digestion, all cells were stained for actin filaments (F-actin) by rhodamine phalloidin (red), and VSMCs were stained using a specific FITC-conjugated monoclonal anti-SM-alpha-actin (green). B) Proportion of cells staining positive for SM-alpha-actin. C) Total RNA was isolated and SM alpha-actin was detected by RT-PCR analysis. Middle panel: VSMCs isolated from WT, Enpp1−/− and ank/ank mice were cultured in the presence of beta-glycerophosphate for 4 weeks. Cells were then stained for TNAP activity (pink) and using von Kossa staining, mineral was detected (black/brown). The area of the culture well in which mineralization was present was quantified by using a point-counting method in which the plate was placed on a grid (divided into 10 mm×10 mm squares) and visualized using a dissecting microscope, the percent area occupied by mineral was assessed by counting the occurrences where the presence of mineral coincided with intercepts on the grid.

[18] = dose of 30 micrograms/g BW; results not shown
Source text: (§2) In one example of this pharmacological study tetramisole will be used. […] For ApoE−/− mice arterial calcification is established by 3-months of age. Thus, the pump can feasibly be planted as early as 1-month of age, allowing treatment to begin at least as early.

[19] = system: MC3T3-E1 cells
Source text: as §2

[20] = system: Enpp1−/− and ank/ank mice; settings: subcutaneous, ALZET osmotic pumps, 10 μg/g/day, compared to control mice
Protocol: Flexibility was measured after euthanasia by determining the degree to which the root of the tail could be pulled back towards the neck, shoulders or lumbar spine until resistance prevented further flexing.
Tetramisole was delivered via ALZET osmotic pumps (Durect Corporation, Cupertino, Calif.) at a dose of 10 μg/g/day.

Recombinant human FLAG-TNAP, sequence (P05186 18-501 limits assumed): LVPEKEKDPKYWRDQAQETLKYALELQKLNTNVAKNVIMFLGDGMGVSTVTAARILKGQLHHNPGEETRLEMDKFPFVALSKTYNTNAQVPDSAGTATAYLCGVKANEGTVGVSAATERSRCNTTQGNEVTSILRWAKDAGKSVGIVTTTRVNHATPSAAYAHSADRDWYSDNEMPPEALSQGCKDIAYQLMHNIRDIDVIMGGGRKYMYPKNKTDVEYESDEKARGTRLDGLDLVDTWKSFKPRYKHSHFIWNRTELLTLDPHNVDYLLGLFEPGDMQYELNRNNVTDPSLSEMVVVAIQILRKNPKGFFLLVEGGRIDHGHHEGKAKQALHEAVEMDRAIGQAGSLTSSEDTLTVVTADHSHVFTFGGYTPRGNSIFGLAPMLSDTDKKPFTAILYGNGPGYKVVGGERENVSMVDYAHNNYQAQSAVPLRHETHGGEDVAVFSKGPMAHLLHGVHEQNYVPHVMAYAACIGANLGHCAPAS
T6 sequence (P05187 23-506 Q130G/E451G limits assumed): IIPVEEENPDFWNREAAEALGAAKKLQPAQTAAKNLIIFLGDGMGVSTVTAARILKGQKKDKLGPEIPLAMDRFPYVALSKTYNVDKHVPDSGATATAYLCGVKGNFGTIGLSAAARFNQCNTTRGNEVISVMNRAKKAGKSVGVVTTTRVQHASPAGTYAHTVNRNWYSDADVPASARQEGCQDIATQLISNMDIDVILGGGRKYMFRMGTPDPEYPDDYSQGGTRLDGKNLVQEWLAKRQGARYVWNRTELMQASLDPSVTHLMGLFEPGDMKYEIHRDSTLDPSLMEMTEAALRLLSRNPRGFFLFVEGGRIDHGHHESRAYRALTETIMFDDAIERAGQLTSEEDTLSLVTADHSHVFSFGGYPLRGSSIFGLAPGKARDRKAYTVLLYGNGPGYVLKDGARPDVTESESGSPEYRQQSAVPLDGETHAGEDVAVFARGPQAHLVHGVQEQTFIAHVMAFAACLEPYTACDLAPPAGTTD
T4 sequence (P05187 23-506 F129E limits assumed): as the sequence (P05187 23-506 Q130G/E451G limits assumed) above, with F107E, G108Q, G429E counted along it
T10 sequence (P05187 23-506 N141S limits assumed): as the sequence (P05187 23-506 Q130G/E451G limits assumed) above, with G108Q, N119S, G429E counted along it
T1 sequence (P05187 23-506 E451H limits assumed): as the sequence (P05187 23-506 Q130G/E451G limits assumed) above, with G108Q, G429H counted along it
T3 sequence (P05187 23-506 N187D limits assumed): as the sequence (P05187 23-506 Q130G/E451G limits assumed) above, with G108Q, N165D, G429E counted along it
T11 sequence (P05187 23-506 D450R limits assumed): as the sequence (P05187 23-506 Q130G/E451G limits assumed) above, with G108Q, D428R, G429E counted along it
T7 sequence (P05187 23-506 F129E/Q130G limits assumed): as the sequence (P05187 23-506 Q130G/E451G limits assumed) above, with F107E, G429E counted along it
T9 sequence (P05187 23-506 F129E/E451G limits assumed): as the sequence (P05187 23-506 Q130G/E451G limits assumed) above, with F107E, G108Q counted along it
T2 sequence (P05187 23-506 limits assumed): as the sequence (P05187 23-506 Q130G/E451G limits assumed) above, with G108Q, G429E counted along it
T5 sequence (P05187 23-506 Q130G limits assumed): as the sequence (P05187 23-506 Q130G/E451G limits assumed) above, with G429E counted along it
T8 sequence (P05187 23-506 D450R/E451H limits assumed): as the sequence (P05187 23-506 Q130G/E451G limits assumed) above, with G108Q, D428R, G429H counted along it

**Q.** Which “bovine VSMC calcification” value [1] does the source give for `c1ccc([C@H]2CN3CCSC3=N2)cc1` [Levamisole] here?
**A.** blocks bovine VSMC calcification in a dose-dependent manner

**Q.** And the Ki [2]?
**A.** 50 ± 3 µM

**Q.** What about the Ki [3] of the same compound?
**A.** 563 ± 56 µM

**Q.** And the Ki [4]?
**A.** 680 ± 140 µM

**Q.** What about the Ki [5] of the same compound?
**A.** 1.05 ± 0.04 mM

**Q.** What about the Ki [6] of the same compound?
**A.** 458 ± 30 µM

**Q.** What about the Ki [7] of the same compound?
**A.** 480 ± 60 µM

**Q.** And the Ki [8]?
**A.** 1.15 ± 0.06 mM

**Q.** What about the Ki [9] of the same compound?
**A.** 34 ± 1 µM

**Q.** And the Ki [10]?
**A.** 535 ± 80 µM

**Q.** And the Ki [11]?
**A.** 630 ± 90 µM

**Q.** What about the Ki [12] of the same compound?
**A.** 460 ± 40 µM

**Q.** And the Ki ([13]; read-out: Ki for various inhibitors)?
**A.** 136 ± 20 µM

**Q.** And the inhibition response [14]?
**A.** around 50%

**Q.** What about the “inhibition of the enzymatic activity of TNAP (confirmed screening hits)” value ([14]; screen of 53,080 compounds) of the same compound?
**A.** inhibit the enzymatic activity of TNAP

**Q.** Which “NPP1 and ANK expression” value [15] does the source give for `O=P(O)(O)OP(=O)(O)O` [PPi, Inorganic pyrophosphate] here?
**A.** decreased NPP1 and ANK expression

**Q.** And the OPN expression [15]?
**A.** increase in OPN expression

**Q.** What does the source list for `Cn1c(=O)c2[nH]cnc2n(C)c1=O` [Theophylline, theophylline]?
**A.** Ki ([13]; Ki for various inhibitors, (1)*, (1)*: 1 mM pNPP): 393 ± 150 µM; Ki ([13]; Ki for various inhibitors, (20)*, (20)*: 20 mM pNPP): 111 ± 8 µM

**Q.** Which “apoptosis in the thymus and the lumbar nerve roots” value [16] does the source give for `Cc1ncc(CO)c(C=O)c1O` [pyridoxal] here?
**A.** reverses apoptosis

**Q.** What about the epileptic seizures [16] of the same compound?
**A.** suppresses the epileptic seizures

**Q.** Which results are given for `c1ccc(C2CN3CCSC3=N2)cc1` (stereo not drawn) [tetramisole]?
**A.** TNAP activity in VSMC [17]: inhibits TNAP activity; TNAP activity in VSMC ([17]; listed as Tetramisole): normalize TNAP activity; tolerability [18]: well tolerated; PPi levels [19]: raise PPi levels; flexibility of the spine [20]: enhanced flexibility of the spine

**Q.** With phosphate as the compound, how does the inhibition response [14] read?
**A.** around 50%
